Activity calls are given as the source filed them. No cut-off for these calls is given here.
Legend:
[1] = Antioxidant activity assessed as superoxide radical anion scavenging activity after 8 mins; assay type: functional
[2] = Antioxidant activity assessed as ABTS radical scavenging activity after 12 hrs; assay type: functional
[3] = tested on: Radical scavenging activity; assay: Antioxidant activity assessed as DPPH radical scavenging activity after 10 mins; assay type: functional
[4] = Protective effect against Fe2+/H2O2 radical-induced supercoiled DNA breakage at 1 mM

Row | EC50 [2] | EC50 [3] | Activity [4] | EC50 [1] | SMILES | Activity [1]
1 | > 50 µM | > 100 µM |  |  | C/C=C/c1cc(O)cc(=O)o1 | inactive
2 | 14.8 µM | 19.3 µM | 70% | 21.9 µM | C/C=C/c1cc2c(c(=O)o1)-c1c(O)c(O)c(OC)c(C(=O)O)c1CO2 [CYATHUSCAVIN A] | 
3 | 7.08 µM | 19.6 µM | 70% |  | C/C=C/c1cc2c(c(=O)o1)-c1c(O)c(O)c(OC)c(C(=O)O)c1C(O)O2 (stereo not drawn) [CYATHUSCAVIN C] | inactive
4 | 9.84 µM | 13.9 µM | 90% | 25.1 µM | C/C=C/c1cc2c(c(=O)o1)-c1c(O)c(O)c(OC)c(C(=O)O)c1C(OC)O2 (stereo not drawn) [CYATHUSCAVIN B] | 
5 | 11.8 µM | 22.1 µM |  |  | Cc1c(C)c2c(c(C)c1O)CCC(C)(C(=O)O)O2 (stereo not drawn) [TROLOX] | inactive
